Measured values: patent US8613927B2, “High affinity human antibodies to human nerve growth factor” (Regeneron Pharmaceuticals, Inc., priority 2007, dated 2013)

Legend:
[1] = test system: transgenic mice of which the endogenous mouse NGF locus was replaced with the human NGF gene; test: Seltzer neuropathic pain model in mice with human NGF gene, Hargreaves' test; assay type: in vivo; conditions: 50 mg/kg s.c. at day 8 post-surgery; p<0.05
Description: These mice were used in a Seltzer neuropathic pain model to test REGN268 and control mAbs. Following the Seltzer surgery, these mice were tested at day 4 and at day 8 post-surgery to confirm that the thermal hyperalgesia had developed.

rat NGF (rNGF) = rat NGF (rNGF) (Rattus norvegicus, UniProt P25427); test: BIACORE binding affinity to rat NGF
Chain of rat NGF (rNGF) (P25427 122-241): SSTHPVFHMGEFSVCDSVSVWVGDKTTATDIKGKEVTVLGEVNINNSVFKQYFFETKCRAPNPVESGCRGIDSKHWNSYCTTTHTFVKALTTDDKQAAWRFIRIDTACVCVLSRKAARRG
Description: Antigen binding affinities of the antibodies for human NGF were determined by surface kinetics using a real-time biosensor surface plasmon resonance assay (BIACORE™). Antibodies were captured on either a goat, anti-human or anti-mouse IgG polyclonal antibody surface created by direct amine coupling of the capture antibody to a BIACORE™ chip. Various concentrations of human NGF were injected over the captured antibody surfaces while the association of the antigen to the antibody and the dissociation of the bound complex were monitored in real time. Kinetic analysis was performed to obtain the equilibrium dissociation constant (KD) and dissociation rate constant, and the latter was used to calculate the antigen/antibody complex dissociation t1/2 (Table 1).
Human NGF (NGF) is highly homologous in amino acid sequence to mouse NGF (mNGF) and rat NGF (rNGF) with about 90% identity. The binding affinities of the antibodies to both mNGF and rNGF were determined as described above.
The binding affinity of selected purified anti-NGF antibodies to mNGF and rNGF were also determined (Table 6).

C57BL/6 male mice = test: Complete Freund's Adjuvant (CFA) test of inflammatory pain, Hargreaves' test; assay type: in vivo, mouse
Description: Complete Freund's Adjuvant (CFA) test of inflammatory pain. To determine if anti-NGF antibodies could relieve pain in a chronic peripheral inflammatory mouse model, complete Freund's adjuvant (CFA) was injected subcutaneously (s.c.) into the hind paw of C57BL/6 male mice, causing thermal hyperalgesia, which was measured using the Hargreaves' test (Torres et al. (2007) Pain 130:267-278). Control mice received the vehicle (i.e., PBS) only. After acclimating the mice to the Hargreaves' apparatus (model 336, IITC Life Science) for 2-3 hours per day for 3 days, they were tested in the apparatus with an active intensity setting of 17%. A cut-off time of 25 sec was used to avoid tissue damage. For each mouse, 3 readings were obtained during a period of 30 min per day and the median latency was used for analysis. […] The Hargreaves' test was repeated daily for up to 4 days after CFA injection and % decrease from the baseline in paw withdrawal latency calculated (Tables 12 and 13, mean % change±SEM). […] There was no statistical difference between the tested antibodies and the control antibody. Table 12: n=7 for each group; all groups 10 mg/kg.

[2] = biological target: Human NGF binding to human TrkA-hFc (Homo sapiens, UniProt P01138, DEL136-138/DEL208-209); test: BIACORE receptor blocking assay, free NGF bound to TrkA-hFc; conditions: percentage free NGF bound; NGF 10-25 nM with molar excess of antibody; NGF alone = 100%
Chain of Human NGF binding to human TrkA-hFc (P01138 with tags, fused parts or gaps DEL136-138/DEL208-209): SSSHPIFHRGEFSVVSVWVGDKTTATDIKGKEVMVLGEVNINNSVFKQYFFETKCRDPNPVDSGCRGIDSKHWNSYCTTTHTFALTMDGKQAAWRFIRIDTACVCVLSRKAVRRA
From the text: To identify blocking antibodies, a receptor blocking assay was designed using a BIACORE™ 3000 instrument. Recombinant human TrkA-hFc and human p75-hFc proteins were amine-coupled to a CM5 chip to a density of about 5000-6000 RU.

[3] = test system: NT-3 levels in sera of naïve C57BL/6 mice; test: Serum NT-3 sandwich ELISA, naive mice; assay type: in vivo, mouse; conditions: 50 mg/kg s.c.
From the text: The limit of detection (˜40 pg/ml) was defined as two standard deviations (2σ) above background with a minimum of five NT-3 standards to define the response to concentration curve.

[4] = biological target: T1, NT-3 signaling through TrkC (engineered HEK293 cell line expressing TrkC) (Homo sapiens, UniProt P20783); test: HEK293/TrkC SRE-luciferase bioassay of NT-3 signaling; assay type: cell-based; conditions: 15 pM NT-3; 6 hours; read-out: IC50, inhibition of NT-3-mediated luciferase activity
T1 construct: host or cells: NT-3 added exogenously; partner TrkC made by an engineered HEK293 line
T1 sequence (P20783 139-257): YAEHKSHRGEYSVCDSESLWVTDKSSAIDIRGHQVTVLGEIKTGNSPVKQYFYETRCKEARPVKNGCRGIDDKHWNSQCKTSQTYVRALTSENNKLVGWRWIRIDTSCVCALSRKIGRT
Description: An engineered HEK293 cell line expressing TrkC was transfected with a SRE-luciferase reporter plasmid. NT-3 drives luciferase expression in a 6-hour assay. […] The engineered HEK293 cell line was seeded onto 96-well plates at 1×10^4 cells/well in serum-free media and incubated overnight at 37° C., 5% CO2. […] The cells were then incubated at 37° C., 5% CO2 for 6 hours. Luciferase activity was determined by adding an equal well volume of BRIGHT GLOW™ (Promega).

[5] = test system: circulating levels of neurotrophin-3 (NT-3); test: Serum NT-3 sandwich ELISA, mice of post incision pain model; assay type: in vivo, mouse; conditions: day 4, 25 mg/kg i.p., mean±std dev, limit of detection ~40 pg/ml
From the text: On day 4, after the behavioral tests from post incision pain model were completed, the mice's sera were collected and analyzed for circulating levels of neurotrophin-3 (NT-3) using a sandwich ELISA. The limit of detection (˜40 pg/ml) was defined as two standard deviations (2σ) above background with a minimum of five NT-3 standards to define the response to concentration curve.

IgG1 Control: negative binding control, IgG1 control (AVASTIN®; Genentech, CA)
relief of neuropathic pain in humanized NGF mice [1]: had no effect

tanezumab [RN624]
Kd (rat NGF (rNGF); Table 5): 1.5 pM
Kd (rat NGF (rNGF); Table 6, selected purified antibodies): 1.51 pM
% decrease from the baseline in paw withdrawal latency (C57BL/6 male mice; Table 12, 10 mg/kg s.c. 1 hr before CFA, Baseline, mean±SEM): 0.0 ± 0.0%
% decrease from the baseline in paw withdrawal latency (C57BL/6 male mice; Table 12, 10 mg/kg s.c., Day 1 after CFA): −58.3 ± 5.5%
% decrease from the baseline in paw withdrawal latency (C57BL/6 male mice; Table 12, 10 mg/kg s.c., Day 2 after CFA): −30.9 ± 5.2%
% decrease from the baseline in paw withdrawal latency (C57BL/6 male mice; Table 12, 10 mg/kg s.c., Day 3 after CFA): −20.7 ± 6.3%
% decrease from the baseline in paw withdrawal latency (C57BL/6 male mice; Table 13, 10 mg/kg s.c., Baseline): 0.0 ± 0.0%
% decrease from the baseline in paw withdrawal latency (C57BL/6 male mice; Table 13, 10 mg/kg s.c., Day 1 after CFA): −61.7 ± 9.7%
% decrease from the baseline in paw withdrawal latency (C57BL/6 male mice; Table 13, 10 mg/kg s.c., Day 2 after CFA): −33.1 ± 17.9%
% decrease from the baseline in paw withdrawal latency (C57BL/6 male mice; Table 13, 10 mg/kg s.c., Day 3 after CFA): −9.6 ± 15.4%
% decrease from the baseline in paw withdrawal latency (C57BL/6 male mice; Table 13, 10 mg/kg s.c., Day 4 after CFA): −0.4 ± 18.5%
% Binding TrkA-hFc [2]: 10%
Serum NT-3 ([3]; Day 1, limit of detection ~40 pg/ml): 131 ± 41 pg/mL
Serum NT-3 ([3]; Day 7): 199 ± 15 pg/mL
Serum NT-3 ([3]; Day 14): 196 ± 35 pg/mL
NT-3 levels ([3]; over 1, 7 and 14 days post treatment): 131 to 199 pg/mL
IC50 [4]: 150000 to 200000 pM
Serum NT-3 [5]: 172 ± 114 pg/mL
